Experimental findings from patent publication US20020009464A1, “Modified glycosides, compositions comprised thereof and methods of use thereof” (priority 1997, published 2002) are described below.

Data set [1] is described as follows: Release of model active from glass layers monitored by absorbance at 510 nm. The format is physicochemical. As to conditions: aqueous 5% Tween 20, constant agitation. The source says: Disperse Red 1 was incorporated as a model active in a glass of lactitol nonaacetate (ratio 0.1/100 g/g) by melt mixing. The release of model active from 0.5 mm and 3 mm thickness layers of glass, into either water or an aqueous solution of 5% Tween 20, was monitored by absorbance at 510 nm.

Data set [2] can be described thus: Glass transition temperature (Tg) by differential scanning calorimetry. As to conditions: DSC, average of two runs. A general note: Differential scanning calorimetry records heat flow against a reference as temperature is scanned.
Description: The acetylated polyol was recovered by evaporating off the solvent and the derivative characterized by nuclear magnetic resonance spectroscopy (NMR) and differential scanning calorimetry (DSC).
Tgs were obtained as the average of two runs.

Take `CCN(CCO)c1ccc(N=Nc2ccc([N+](=O)[O-])cc2)cc1` [Disperse red 1]: the “time to complete release of active” value in data set [1] (0.5 mm thickness glass) worked out at 12 h; in data set [1] (3 mm thickness glass), 72 h.

On to “α-D-glucopyranosyl-1→6-mannitol nonaacetate [GPM nonaacetate]”, for which, in data set [2], the Tg is 35 °C.

In turn, “α-D-glucopyranosyl-1→6-sorbitol nonaacetate [GPS nonaacetate]” displayed a Tg in data set [2] of 17.4 °C.
